IC50 and MIC data for 11 compounds are collected here from patent publication US10800791B2, “Triazole ACC inhibitors and uses thereof” (Gilead Apollo, LLC, priority 2015, dated 2020).

As a reminder, the IC50 is the concentration that gives 50% inhibition. What is called MIC is the least concentration at which growth counts as inhibited.

For one test, the target named is fungal (fACC2) (UniProt Q00955). The settings on record: read-out: fACC2 (in vitro ACC2 Inhibition Assay, IC50), ADP-Glo, 5 nM ACC2, 20 μM ATP, 20 μM acetyl-CoA. (In general: ADP-Glo first removes unused ATP, then detects ADP through luciferase.)
A further test deals with C. parapsilosis. Kind of test: Antifungal Activity Assay (broth microtiter MIC), C. parapsilosis. The class given is cell-based, Candida parapsilosis. The settings on record: Lodderomyces parapsilosis, ATCC22019, 48 h. Summed up:
(§1)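 Colonies from 24 h Sabouraud dextrose agar plates (35° C) are suspended in RPMI 1640+MOPS and diluted to give 2.5×10^3 CFU/mL in the wells. Plates are set up per CLSI M27-A3. Visual MIC is recorded at 48 h.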

The next test has as its target human (hACC2) (Homo sapiens, UniProt O00763). Put plainly: In vitro ACC inhibition assay (ADP-Glo), hACC2. The class given is biochemical. To be noted: 5 nM ACC2, 20 μM ATP, 20 μM acetyl-CoA. As to the method: The detailed procedure is as follows. […] 10 μL ADP glo reagent was added. […] 20 μL kinase detection reagent was added.
For another test, the system named is C. albicans. Kind of test: Antifungal Activity Assay (broth microtiter MIC), C. albicans. The test is classed as cell-based, Candida albicans. The settings on record: Candida albicans, ATCC90028, 48 h. Summed up:
as §1

A further test has as its system C. krusei. Kind of test: Antifungal Activity Assay (broth microtiter MIC), C. krusei. The class given is cell-based, Candida krusei. To be noted: Pichia kudriavzevii, ATCC6258, 48 h. Summed up: as §1
The mark [1] stands for this setting: read-out: MIC, C. parapsilosis ATCC 22019, Table 3b (additional results), 3 replicates, MIC recorded at 48 h.
[2] abbreviates: read-out: MIC, C. albicans ATCC 90028, Table 3b (additional results), 3 replicates, MIC recorded at 48 h.
Where [3] appears, read: read-out: MIC, C. krusei ATCC 6258, Table 3b (additional results), 3 replicates, MIC recorded at 48 h.
Where [4] appears, read: Table 3b (additional results), ATCC 22019, 3 replicates, MIC recorded at 48 h, read-out: MIC, C. parapsilosis ATCC 22019.
[5] abbreviates: Table 3b (additional results), ATCC 90028, 3 replicates, MIC recorded at 48 h, read-out: MIC, C. albicans ATCC 90028.
Where [6] appears, read: Table 3b (additional results), ATCC 6258, 3 replicates, MIC recorded at 48 h, read-out: MIC, C. krusei ATCC 6258.

≈ marks a conversion by molar mass, not a printed value. Read-outs that look alike come from different tables or passages of the source.

Sequence of human (hACC2) (O00763 whole entry): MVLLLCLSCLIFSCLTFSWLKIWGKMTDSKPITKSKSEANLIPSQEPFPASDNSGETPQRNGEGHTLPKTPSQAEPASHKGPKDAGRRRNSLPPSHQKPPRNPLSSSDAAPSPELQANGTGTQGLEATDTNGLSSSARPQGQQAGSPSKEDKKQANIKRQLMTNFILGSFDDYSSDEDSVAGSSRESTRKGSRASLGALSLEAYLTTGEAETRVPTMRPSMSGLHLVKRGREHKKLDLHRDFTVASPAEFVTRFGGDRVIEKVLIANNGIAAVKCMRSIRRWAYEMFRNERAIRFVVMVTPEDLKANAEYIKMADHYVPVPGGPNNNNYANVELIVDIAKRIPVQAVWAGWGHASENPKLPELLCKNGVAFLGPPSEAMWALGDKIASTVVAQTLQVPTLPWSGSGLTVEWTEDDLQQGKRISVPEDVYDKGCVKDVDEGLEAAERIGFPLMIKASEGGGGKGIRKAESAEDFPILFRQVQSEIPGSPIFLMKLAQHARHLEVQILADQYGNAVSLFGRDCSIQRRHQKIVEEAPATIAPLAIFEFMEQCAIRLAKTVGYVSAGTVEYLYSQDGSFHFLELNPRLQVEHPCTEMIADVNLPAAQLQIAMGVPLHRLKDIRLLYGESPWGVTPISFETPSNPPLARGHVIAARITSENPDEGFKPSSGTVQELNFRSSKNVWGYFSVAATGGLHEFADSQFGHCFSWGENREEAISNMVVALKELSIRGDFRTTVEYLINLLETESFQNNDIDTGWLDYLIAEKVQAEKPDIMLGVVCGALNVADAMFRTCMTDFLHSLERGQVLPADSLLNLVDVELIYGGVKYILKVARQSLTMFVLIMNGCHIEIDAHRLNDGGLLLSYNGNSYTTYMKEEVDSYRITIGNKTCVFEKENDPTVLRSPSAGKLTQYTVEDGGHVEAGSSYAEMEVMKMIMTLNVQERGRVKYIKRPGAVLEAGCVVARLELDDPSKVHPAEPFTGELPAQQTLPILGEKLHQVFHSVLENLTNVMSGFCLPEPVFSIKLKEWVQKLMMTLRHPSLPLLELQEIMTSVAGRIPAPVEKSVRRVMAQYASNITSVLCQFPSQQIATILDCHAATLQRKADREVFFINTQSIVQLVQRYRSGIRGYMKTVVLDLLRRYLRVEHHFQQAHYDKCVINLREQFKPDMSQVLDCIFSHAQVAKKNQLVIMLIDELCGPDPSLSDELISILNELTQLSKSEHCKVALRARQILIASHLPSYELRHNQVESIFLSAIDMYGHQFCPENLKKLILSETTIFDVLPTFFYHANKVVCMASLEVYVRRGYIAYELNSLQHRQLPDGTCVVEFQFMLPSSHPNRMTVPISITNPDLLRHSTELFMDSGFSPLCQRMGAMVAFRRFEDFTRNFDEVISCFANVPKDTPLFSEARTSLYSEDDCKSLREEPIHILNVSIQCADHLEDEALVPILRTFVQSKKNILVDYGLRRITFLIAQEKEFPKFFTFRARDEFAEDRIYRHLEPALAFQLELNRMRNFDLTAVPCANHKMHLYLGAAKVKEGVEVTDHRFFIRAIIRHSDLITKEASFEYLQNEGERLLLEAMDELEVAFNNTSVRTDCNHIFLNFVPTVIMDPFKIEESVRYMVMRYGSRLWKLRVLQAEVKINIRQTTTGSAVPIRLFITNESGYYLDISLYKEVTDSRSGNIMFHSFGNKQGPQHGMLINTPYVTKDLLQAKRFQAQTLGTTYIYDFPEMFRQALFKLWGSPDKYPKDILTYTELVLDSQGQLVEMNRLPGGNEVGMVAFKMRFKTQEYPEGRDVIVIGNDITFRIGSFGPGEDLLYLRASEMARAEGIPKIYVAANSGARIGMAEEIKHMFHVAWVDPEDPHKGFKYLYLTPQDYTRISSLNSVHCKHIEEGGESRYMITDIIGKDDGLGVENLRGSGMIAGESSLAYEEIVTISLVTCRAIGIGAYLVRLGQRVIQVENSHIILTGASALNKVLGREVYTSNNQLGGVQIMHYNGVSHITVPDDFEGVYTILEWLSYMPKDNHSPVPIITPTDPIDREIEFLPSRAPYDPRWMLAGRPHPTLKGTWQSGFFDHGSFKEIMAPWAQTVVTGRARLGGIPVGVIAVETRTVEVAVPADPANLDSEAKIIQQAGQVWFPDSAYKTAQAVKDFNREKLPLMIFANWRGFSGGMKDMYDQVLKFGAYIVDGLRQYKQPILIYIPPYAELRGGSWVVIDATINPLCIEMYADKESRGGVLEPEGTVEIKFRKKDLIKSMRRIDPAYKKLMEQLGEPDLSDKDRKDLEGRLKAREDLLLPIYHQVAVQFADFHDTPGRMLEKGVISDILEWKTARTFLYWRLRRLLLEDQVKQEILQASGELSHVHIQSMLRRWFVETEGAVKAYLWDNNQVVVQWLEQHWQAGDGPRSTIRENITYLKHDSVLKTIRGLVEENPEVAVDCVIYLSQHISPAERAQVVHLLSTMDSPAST
Sequence of fungal (fACC2) (Q00955 whole entry): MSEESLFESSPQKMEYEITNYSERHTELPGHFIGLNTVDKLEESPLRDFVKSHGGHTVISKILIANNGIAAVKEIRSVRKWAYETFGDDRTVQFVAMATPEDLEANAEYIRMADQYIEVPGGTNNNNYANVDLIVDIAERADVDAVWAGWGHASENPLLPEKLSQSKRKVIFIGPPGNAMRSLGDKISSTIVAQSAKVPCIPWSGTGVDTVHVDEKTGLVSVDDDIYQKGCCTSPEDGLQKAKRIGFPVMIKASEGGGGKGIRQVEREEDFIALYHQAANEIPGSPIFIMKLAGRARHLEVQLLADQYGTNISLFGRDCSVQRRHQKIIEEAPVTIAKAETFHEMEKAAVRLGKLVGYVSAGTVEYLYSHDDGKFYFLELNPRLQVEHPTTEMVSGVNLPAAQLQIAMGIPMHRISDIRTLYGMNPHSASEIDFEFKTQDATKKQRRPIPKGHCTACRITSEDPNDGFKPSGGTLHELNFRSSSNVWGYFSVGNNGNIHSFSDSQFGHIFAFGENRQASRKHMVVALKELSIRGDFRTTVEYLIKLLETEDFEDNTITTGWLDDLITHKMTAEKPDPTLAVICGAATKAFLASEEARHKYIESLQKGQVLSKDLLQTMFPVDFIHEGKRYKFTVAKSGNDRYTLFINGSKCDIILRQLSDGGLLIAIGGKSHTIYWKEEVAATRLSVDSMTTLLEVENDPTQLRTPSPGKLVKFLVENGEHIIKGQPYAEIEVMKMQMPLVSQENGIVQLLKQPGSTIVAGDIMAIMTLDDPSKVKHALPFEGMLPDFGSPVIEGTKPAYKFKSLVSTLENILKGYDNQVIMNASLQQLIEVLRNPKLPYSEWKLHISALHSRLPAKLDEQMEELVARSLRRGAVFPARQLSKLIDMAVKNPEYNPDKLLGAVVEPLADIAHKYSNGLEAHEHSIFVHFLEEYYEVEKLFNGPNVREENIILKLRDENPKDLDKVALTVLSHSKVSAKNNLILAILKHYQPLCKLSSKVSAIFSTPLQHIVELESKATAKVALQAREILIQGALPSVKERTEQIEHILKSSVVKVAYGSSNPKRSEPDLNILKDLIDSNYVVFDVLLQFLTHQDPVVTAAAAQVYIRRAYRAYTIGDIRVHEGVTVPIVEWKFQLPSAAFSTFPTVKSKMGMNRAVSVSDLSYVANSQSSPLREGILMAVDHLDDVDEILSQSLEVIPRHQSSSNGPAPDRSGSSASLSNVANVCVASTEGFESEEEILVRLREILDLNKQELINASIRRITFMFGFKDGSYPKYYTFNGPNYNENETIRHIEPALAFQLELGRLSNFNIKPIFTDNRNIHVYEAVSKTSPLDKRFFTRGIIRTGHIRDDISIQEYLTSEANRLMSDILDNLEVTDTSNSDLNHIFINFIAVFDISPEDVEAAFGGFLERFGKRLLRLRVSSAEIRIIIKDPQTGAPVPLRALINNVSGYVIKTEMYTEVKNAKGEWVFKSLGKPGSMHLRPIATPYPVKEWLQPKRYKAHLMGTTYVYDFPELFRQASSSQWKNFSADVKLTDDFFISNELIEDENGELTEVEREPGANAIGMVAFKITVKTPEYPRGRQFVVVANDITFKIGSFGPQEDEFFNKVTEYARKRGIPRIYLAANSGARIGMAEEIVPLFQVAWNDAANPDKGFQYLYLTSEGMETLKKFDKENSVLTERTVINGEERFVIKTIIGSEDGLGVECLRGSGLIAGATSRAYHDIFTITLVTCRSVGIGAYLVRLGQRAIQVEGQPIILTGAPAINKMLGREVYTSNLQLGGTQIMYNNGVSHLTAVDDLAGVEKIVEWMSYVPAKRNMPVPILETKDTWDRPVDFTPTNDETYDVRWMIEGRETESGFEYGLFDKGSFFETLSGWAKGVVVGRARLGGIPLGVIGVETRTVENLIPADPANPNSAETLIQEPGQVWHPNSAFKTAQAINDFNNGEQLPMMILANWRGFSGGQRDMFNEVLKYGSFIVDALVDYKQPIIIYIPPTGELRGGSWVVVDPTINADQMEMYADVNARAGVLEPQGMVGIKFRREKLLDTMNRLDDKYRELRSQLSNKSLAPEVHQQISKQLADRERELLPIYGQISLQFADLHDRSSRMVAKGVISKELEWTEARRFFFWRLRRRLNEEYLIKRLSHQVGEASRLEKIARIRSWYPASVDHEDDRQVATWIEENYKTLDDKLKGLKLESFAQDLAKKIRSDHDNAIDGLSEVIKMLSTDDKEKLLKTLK

In the case of `COc1ccc(F)cc1[C@H](Cn1c(=O)n([C@@H](C)C(=O)NC(C)C)c(=O)c2c(C)c(-n3nccn3)sc21)OCC(C)(C)O` [Compound I-172], the IC50 on fungal (fACC2) (Table 2a) lay in the range of 0.4 to 1 nM; at fungal (fACC2) (Table 2b, additional results) it was 0.3 to 1 nM; on human (hACC2) (Table 2a), 5 to 10 nM; on human (hACC2) (Table 2b, additional results) it was 5 to 10 nM. Besides, the minimum inhibitory concentration (MIC) in the test on C. parapsilosis (setting [1]) lay within 1.01 to 2 µg/mL (≈ 1.68 to 3.32 µM); with C. albicans (setting [2]) it was 1.01 to 2 µg/mL (≈ 1.68 to 3.32 µM); in the test on C. krusei (setting [3]), 2.01 to 4 µg/mL (≈ 3.34 to 6.64 µM).
For the compound `COc1ccc(F)cc1[C@H](Cn1c(=O)n([C@H](C)C(N)=O)c(=O)c2c(C)c(-n3nccn3)sc21)OCC(C)(C)O` [Compound I-173], the IC50 fell in the range of 1 to 5 nM at fungal (fACC2) (Table 2a); 1 to 5 nM at fungal (fACC2) (Table 2b, additional results); 10 to 40 nM against human (hACC2) (Table 2a); 10 to 40 nM against human (hACC2) (Table 2b, additional results). Also, the figures for the MIC with C. parapsilosis (setting [4]), in the test on C. albicans (setting [5]) and in the test with C. krusei (setting [6]) were 2.01 to 4 µg/mL (≈ 3.59 to 7.14 µM), 0.25 to 1 µg/mL (≈ 0.446 to 1.78 µM) and more than 4.01 µg/mL, respectively.
Consider `COc1ccc(F)cc1[C@H](Cn1c(=O)n([C@@H](C)C(N)=O)c(=O)c2c(C)c(-n3nccn3)sc21)OCC(C)(C)O` [Compound I-174], for which the IC50 at fungal (fACC2) (Table 2a) fell in the range of 0.4 to 1 nM; on fungal (fACC2) (Table 2b, additional results) it was 0.3 to 1 nM; on human (hACC2) (Table 2a) it was 5 to 10 nM; against human (hACC2) (Table 2b, additional results) it was 5 to 10 nM. Also, the MIC in the test with C. parapsilosis (setting [4]) is 2.01 to 4 µg/mL (≈ 3.59 to 7.14 µM); in the test on C. albicans (setting [5]) it was 0.25 to 1 µg/mL (≈ 0.446 to 1.78 µM); with C. krusei (setting [6]) it was more than 4.01 µg/mL.
As for `COc1ccc(F)cc1[C@H](Cn1c(=O)n([C@H](C)C(=O)N2CCCC2)c(=O)c2c(C)c(-n3nccn3)sc21)OCC(C)(C)O` [Compound I-175], the IC50 was in the range of 0.4 to 1 nM at fungal (fACC2) (Table 2a); 0.3 to 1 nM on fungal (fACC2) (Table 2b, additional results); 5 to 10 nM against human (hACC2) (Table 2a); 5 to 10 nM against human (hACC2) (Table 2b, additional results). Moreover, the minimum inhibitory concentration (MIC) with C. parapsilosis (setting [4]) lay within 1.01 to 2 µg/mL (≈ 1.64 to 3.25 µM); with C. albicans (setting [5]) it was 0.25 to 1 µg/mL (≈ 0.407 to 1.63 µM); with C. krusei (setting [6]), 2.01 to 4 µg/mL (≈ 3.27 to 6.51 µM).
`COc1ccc(F)cc1[C@H](Cn1c(=O)n([C@@H](C)C(=O)N2CCCC2)c(=O)c2c(C)c(-n3nccn3)sc21)OCC(C)(C)O` [Compound I-176]: the IC50 fell in the range of 1 to 5 nM at fungal (fACC2) (Table 2a); 1 to 5 nM on fungal (fACC2) (Table 2b, additional results); 10 to 40 nM at human (hACC2) (Table 2a); 10 to 40 nM against human (hACC2) (Table 2b, additional results). Besides, the minimum inhibitory concentration (MIC) in the test with C. parapsilosis (setting [4]) lay in the range of 1.01 to 2 µg/mL (≈ 1.64 to 3.25 µM); in the test with C. albicans (setting [5]), 0.25 to 1 µg/mL (≈ 0.407 to 1.63 µM); in the test with C. krusei (setting [6]), 2.01 to 4 µg/mL (≈ 3.27 to 6.51 µM).
As for `COc1ccccc1[C@@H](O)Cn1c(=O)n([C@@H](C)C(=O)N(C)C(C)C)c(=O)c2c(C)c(-n3nccn3)sc21` [Compound I-200], the IC50 on fungal (fACC2) (Table 2b, additional results) was in the range of 1 to 5 nM; against human (hACC2) (Table 2b, additional results), 10 to 40 nM. In addition, the MIC with C. parapsilosis (setting [4]), in the test with C. albicans (setting [5]) and in the test with C. krusei (setting [6]) was 2.01 to 4 µg/mL (≈ 3.82 to 7.6 µM) each time.
With `COc1ccccc1[C@@H](O)Cn1c(=O)n([C@@H](C)C(=O)NC(C)C)c(=O)c2c(C)c(-n3nccn3)sc21` [Compound I-201], the IC50 on fungal (fACC2) (Table 2b, additional results) was in the range of 0.3 to 1 nM; against human (hACC2) (Table 2b, additional results) it was 10 to 40 nM. The figures for the MIC in the test with C. parapsilosis (setting [1]), with C. albicans (setting [2]) and with C. krusei (setting [3]) were 1.01 to 2 µg/mL (≈ 1.97 to 3.9 µM), 2.01 to 4 µg/mL (≈ 3.92 to 7.8 µM) and 2.01 to 4 µg/mL (≈ 3.92 to 7.8 µM), respectively.
With `CCc1ccc(F)cc1[C@@H](O)Cn1c(=O)n(C(C)(C)C(N)=O)c(=O)c2c(C)c(-n3nccn3)sc21` [Compound I-202], the IC50 at fungal (fACC2) (Table 2b, additional results) lay within 1 to 5 nM; against human (hACC2) (Table 2b, additional results) it was 10 to 40 nM. The MIC with C. parapsilosis (setting [4]), in the test on C. albicans (setting [5]) and in the test on C. krusei (setting [6]) was more than 4.01 µg/mL in each case.
Consider `COc1ccccc1[C@H](Cn1c(=O)n([C@@H](C)C(=O)N(C)C(C)C)c(=O)c2c(C)c(-n3nccn3)sc21)OCCO` [Compound I-207], for which the IC50 on fungal (fACC2) (Table 2b, additional results) is 0.3 to 1 nM; against human (hACC2) (Table 2b, additional results), 5 to 10 nM. The MIC with C. parapsilosis (setting [4]), in the test on C. albicans (setting [5]) and in the test on C. krusei (setting [6]) was 1.01 to 2 µg/mL (≈ 1.77 to 3.5 µM) each time.
In the case of `COc1ccccc1[C@H](Cn1c(=O)n(C(C)(C)C(=O)NC(C)C)c(=O)c2c(C)c(-n3nccn3)sc21)OCCN1CC(F)C1` [Compound I-209], the 50% inhibitory concentration (IC50) on fungal (fACC2) (Table 2b, additional results) is 1 to 5 nM; against human (hACC2) (Table 2b, additional results) it was more than 40 nM. Moreover, the minimum inhibitory concentration (MIC) is 0.25 to 1 µg/mL (≈ 0.398 to 1.59 µM) in the test on C. parapsilosis (setting [1]), 1.01 to 2 µg/mL (≈ 1.61 to 3.19 µM) in the test with C. albicans (setting [2]) and 0.25 to 1 µg/mL (≈ 0.398 to 1.59 µM) in the test with C. krusei (setting [3]).
Turning to `COc1ccc(F)cc1[C@H](Cn1c(=O)n(C(C)(C)C(=O)NC(C)C)c(=O)c2c(C)c(-n3nccn3)sc21)OCCC(=O)N(C)O` [Compound I-219], the IC50 at fungal (fACC2) (Table 2b, additional results) lay within 1 to 5 nM; against human (hACC2) (Table 2b, additional results), 5 to 10 nM. Further, the MIC in the test with C. parapsilosis (setting [1]), in the test with C. albicans (setting [2]) and in the test on C. krusei (setting [3]) was 0.25 to 1 µg/mL (≈ 0.387 to 1.55 µM) in each case.
